Assay results: patent publication US20090148512A1, “NOVEL USES OF CHLORAMPHENICOL AND ANALOGOUS THEREOF” (LANNETT CO INC, priority 2007, published 2009)
Converted amounts (≈) assume the structure as drawn. Where two headings read alike, the source gives them in different places.

Experiments:
[1] = test system: susceptible Staphylococcus aureus (MSSA); experiment: In vitro activity (MIC) against susceptible Staphylococcus aureus (MSSA) strains collected in 2005; format: cell-based; conditions: for % resistance / % susceptible: CLSI (2007) criteria
MRSA = experiment: In vitro activity (MIC) against MRSA strains collected in 2005; format: cell-based, Staphylococcus aureus; conditions: for % resistance / % susceptible: CLSI (2007) criteria
C. difficle = experiment: In vitro activity (MIC) against 25 clinical strains of C. difficile; format: cell-based; conditions: for MIC50 / MIC90: Clostridioides difficile
[2] = North America 2005, 1,232 strains
[3] = North America and Europe 2005, 2,276 strains
[4] = Staphylococcus aureus, MSSA, North America and Europe 2005, 2,276 strains, read-out: MIC90
[5] = North America 2005, 1,158 strains
[6] = North America and Europe 2005, 1,644 strains
[7] = Staphylococcus aureus, MRSA, North America 2005, 1,158 strains, read-out: MIC90
[8] = Staphylococcus aureus, MRSA, North America and Europe 2005, 1,644 strains, read-out: MIC50
[9] = Staphylococcus aureus, MRSA, North America and Europe 2005, 1,644 strains, read-out: MIC90
[10] = Staphylococcus aureus, MSSA, North America and Europe 2005, 2,276 strains, read-out: MIC50

| MIC90 (MRSA; [7]) [µg/mL] | Compound | MIC90 ([1]; Europe 2005, 1,044 strains) | % resistance ([1]; Europe 2005, 1,044 strains) [%] | % susceptible ([1]; Europe 2005, 1,044 strains) [%] | MIC90 [1, 2] | % resistance [1, 2] [%] | % susceptible [1, 2] [%] | % resistance [1, 3] [%] | % susceptible [1, 3] [%] | MIC90 [1, 4] [µg/mL] | MIC50 (MRSA; [5]) | % resistance (MRSA; [5]) [%] | % susceptible (MRSA; [5]) [%] | % resistance (MRSA; [6]) [%] | % susceptible (MRSA; [6]) [%] | MIC50 (MRSA; [8]) [µg/mL] | MIC90 (MRSA; [9]) [µg/mL] | MIC50 ([1]; Europe 2005, 1,044 strains) | MIC50 [1, 2] | MIC50 [1, 10] [µg/mL] | other results |
| --- | --- | --- | --- | --- | --- | --- | --- | --- | --- | --- | --- | --- | --- | --- | --- | --- | --- | --- | --- | --- | --- |
| > 8 | CC[C@H]1OC(=O)[C@H](C)[C@@H](O[C@H]2C[C@@](C)(OC)[C@@H](O)[C@H](C)O2)[C@H](C)[C@@H](O[C@@H]2O[C@H](C)C[C@H](N(C)C)[C@H]2O)[C@](C)(O)C[C@@H](C)C(=O)[C@H](C)[C@@H](O)[C@]1(C)O [Erythromycin] | >8 µg/mL | 13.3 | 86.2 | >8 µg/mL | 28.0 | 70.8 | 21.3 | 77.9 | > 8 | >8 µg/mL | 94.8 | 4.8 | 89.2 | 10.2 | > 8 | > 8 |  |  |  |  |
| > 4 | C[C@H]1COc2c(N3CCN(C)CC3)c(F)cc3c(=O)c(C(=O)O)cn1c23 [Levofloxacin] | ≦0.5 μg/ml | 6.8 | 93.0 | ≦0.5 μg/ml | 6.6 | 93.0 | 6.7 | 93.0 | ≤ 0.5 | >4 µg/mL | 71.7 | 26.4 | 77.4 | 20.6 | > 4 | > 4 | ≦0.5 μg/ml | ≦0.5 μg/ml | ≤ 0.5 |  |
|  | Cc1ncc([N+](=O)[O-])n1CCO [Metronidazole] |  |  |  |  |  |  |  |  |  |  |  |  |  |  |  |  |  |  |  | % resistant (C. difficle; 25 clinical strains): 00%; % susceptible (C. difficle; 25 clinical strains): 100%; MIC50 (C. difficle): 0.25 µM (≈ 0.0428 µg/mL); MIC90 (C. difficle): 0.5 µM (≈ 0.0856 µg/mL) |
| > 2 | CCC[C@@H]1C[C@@H](C(=O)N[C@@H]([C@H]2O[C@H](SC)[C@H](O)[C@@H](O)[C@H]2O)[C@H](C)Cl)N(C)C1 [Clindamycin] | ≦0.25 μg/ml | 3.2 | 96.6 | ≦0.25 μg/ml | 4.8 | 95.0 | 4.0 | 95.7 | ≤ 0.25 | ≦0.25 μg/ml | 44.3 | 55.5 | 45.3 | 54.6 | ≤ 0.25 | > 2 | ≦0.25 μg/ml | ≦0.25 μg/ml | ≤ 0.25 |  |
|  | CN[C@H](CC(C)C)C(=O)N[C@H]1C(=O)N[C@@H](CC(N)=O)C(=O)N[C@H]2C(=O)N[C@H]3C(=O)N[C@H](C(=O)N[C@H](C(=O)O)c4cc(O)cc(O)c4-c4cc3ccc4O)[C@H](O)c3ccc(c(Cl)c3)Oc3cc2cc(c3O[C@@H]2O[C@H](CO)[C@@H](O)[C@H](O)[C@H]2O[C@H]2C[C@](C)(N)[C@H](O)[C@H](C)O2)Oc2ccc(cc2Cl)[C@H]1O [Vancomycin] | 1 µg/mL (≈ 0.69 µM) | 0.0 | 100 | 1 µg/mL (≈ 0.69 µM) | 0.0 | 100 | 0.0 | 100 | 1 (≈ 0.69 µM) | 1 µg/mL (≈ 0.69 µM) | 0.0 | 100 | 0.0 | 100 | 1 (≈ 0.69 µM) | 1 (≈ 0.69 µM) | 1 µg/mL (≈ 0.69 µM) | 1 µg/mL (≈ 0.69 µM) | 1 (≈ 0.69 µM) | Range (MIC) ([1]; Europe 2005, 1,044 strains): ≦0.12-2; Range (MIC) [1, 2]: ≦0.25-2; Range (MIC) [1, 3]: ≦0.12-2; MIC90 (MRSA; [5]): 1 µg/mL (≈ 0.69 µM) |

| Compound | MIC90 (MRSA; [7]) [µg/mL] | MIC90 ([1]; Europe 2005, 1,044 strains) | % resistance ([1]; Europe 2005, 1,044 strains) [%] | % susceptible ([1]; Europe 2005, 1,044 strains) [%] | MIC90 [1, 2] | % resistance [1, 2] [%] | % susceptible [1, 2] [%] | % resistance [1, 3] [%] | % susceptible [1, 3] [%] | MIC90 [1, 4] [µg/mL] | MIC50 (MRSA; [5]) | % resistance (MRSA; [5]) [%] | % susceptible (MRSA; [5]) [%] | % resistance (MRSA; [6]) [%] | % susceptible (MRSA; [6]) [%] | MIC50 (MRSA; [8]) [µg/mL] | MIC90 (MRSA; [9]) [µg/mL] | MIC50 ([1]; Europe 2005, 1,044 strains) | MIC50 [1, 2] | MIC50 [1, 10] [µg/mL] | other results |
| --- | --- | --- | --- | --- | --- | --- | --- | --- | --- | --- | --- | --- | --- | --- | --- | --- | --- | --- | --- | --- | --- |
| CN(C)[C@@H]1C(O)=C(C(N)=O)C(=O)[C@@]2(O)C(O)=C3C(=O)c4c(O)cccc4[C@@](C)(O)[C@H]3C[C@@H]12 [Tetracycline] | ≤ 2 | ≦2 μg/ml | 6.5 | 93.3 | ≦2 μg/ml | 2.7 | 96.8 | 4.4 | 95.2 | ≤ 2 | ≦2 μg/ml | 7.0 | 92.5 | 10.3 | 88.8 | ≤ 2 | > 8 | ≦2 μg/ml | ≦2 μg/ml | ≤ 2 |  |
| O=C(N[C@H](CO)[C@H](O)c1ccc([N+](=O)[O-])cc1)C(Cl)Cl [chloramphenicol, Chloramphenicol] | 8 (≈ 24.8 µM) | 8 µg/mL (≈ 24.8 µM) | 1.4 | 98.4 | 8 µg/mL (≈ 24.8 µM) | 0.0 | 99.4 | 0.7 | 98.9 | 8 (≈ 24.8 µM) | 8 µg/mL (≈ 24.8 µM) | 0.4 | 92.3 | 1.9 | 91.5 | 8 (≈ 24.8 µM) | 8 (≈ 24.8 µM) | 8 µg/mL (≈ 24.8 µM) | 8 µg/mL (≈ 24.8 µM) | 8 (≈ 24.8 µM) | % resistant (C. difficle; 25 clinical strains): 8.0%; % susceptible (C. difficle; 25 clinical strains): 88.0%; MIC50 (C. difficle; 25 clinical strains, read-out: MIC50): 4 µM (≈ 1.29 µg/mL); MIC90 (C. difficle; 25 clinical strains, read-out: MIC90): 16 µM (≈ 5.17 µg/mL) |
